Data set [1] concerns Glomerella lagenarium (Colletotrichum lagenarium). Nature of the data set: Glomerella lagenarium (Colletotrichum lagenarium) liquid culture / cucumber / preventative (anthracnose). The data set is classed as cell-based. The conditions noted are these: Colletotrichum orbiculare; 20 ppm in the applied formulation; liquid culture in PDB, 24° C.; 3 to 4 days after application; read-out: disease control compared to untreated control (inhibition of growth measured photometrically). As to the method:
Mycelia fragments or conidia suspensions of a fungus prepared either freshly from liquid cultures of the fungus or from cryogenic storage, are directly mixed into nutrient broth. DMSO solutions of the test compound (max. 10 mg/ml) are diluted with 0.025% Tween20 by a factor of 50 and 10 μl of this solution is pipetted into a microtiter plate (96-well format). The nutrient broth containing the fungal spores/mycelia fragments is then added to give an end concentration of the tested compound. The test plates are incubated in the dark at 24° C. and 96% relative humidity. The inhibition of fungal growth is determined photometrically after 2 to 7 days, depending on the pathosystem, and percent antifungal activity relative to the untreated check is calculated.
Conidia of the fungus from cryogenic storage are directly mixed into nutrient broth (PDB—potato dextrose broth). After placing a (DMSO) solution of test compound into a microtiter plate (96-well format), the nutrient broth containing the fungal spores is added. The test plates are incubated at 24° C. and the inhibition of growth is measured photometrically 3 to 4 days after application.
The following compounds at 20 ppm in the applied formulation give at least 80% disease control in this test when compared to untreated control under the same conditions, which show extensive disease development.

The test system of the next data set is Phakopsora pachyrhizi. The data set can be described thus: Phakopsora pachyrhizi / soybean / leaf disc preventative (Asian soybean rust). The data set is classed as in vivo. Particulars: foliar, 200 ppm in the applied formulation, soybean leaf disks, inoculated one day after application, assessed 12 to 14 days after application, read-out: disease control compared to untreated control leaf disks. As to the method: Leaf disks or leaf segments of various plant species are cut from plants grown in a greenhouse. The cut leaf disks or segments are placed in multiwell plates (24-well format) onto water agar. The leaf disks are sprayed with a test solution before (preventative) or after (curative) inoculation. Compounds to be tested are prepared as DMSO solutions (max. 10 mg/ml) which are diluted to the appropriate concentration with 0.025% Tween20 just before spraying. The inoculated leaf disks or segments are incubated under defined conditions (temperature, relative humidity, light, etc.) according to the respective test system. A single evaluation of disease level is carried out 3 to 14 days after inoculation, depending on the pathosystem. Percent disease control relative to the untreated check leaf disks or segments is then calculated.
Soybean leaf disks are placed on water agar in multiwell plates (24-well format) and sprayed with the formulated test compound diluted in water. One day after application leaf discs are inoculated by spraying a spore suspension on the lower leaf surface. After an incubation period in a climate cabinet of 24-36 hours in darkness at 20° C. and 75% rh leaf disc are kept at 20° C. with 12 h light/day and 75% rh. The activity of a compound is assessed as percent disease control compared to untreated when an appropriate level of disease damage appears in untreated check leaf disks (12 to 14 days after application).
The following compounds at 200 ppm in the applied formulation give at least 80% disease control in this test when compared to untreated control leaf disks under the same conditions, which show extensive disease development.

As for `Fc1ccc(Sc2ccc(-c3noc(C(F)(F)F)n3)cc2)c(F)c1` [Compound 1.10, 3-[4-(2,4-difluorophenyl)sulfanylphenyl]-5-(trifluoromethyl)-1,2,4-oxadiazole], the melting point fell in the range of 72 to 80 °C. Further, the inhibition at 20 ppm in data set [1] is at least 80%. The pest or weed control at 200 ppm with Phakopsora pachyrhizi was at least 80%.
For the molecule `Fc1cc(-c2noc(C(F)(F)F)n2)ccc1CSc1ccccc1` [Compound 1.24, 3-[3-fluoro-4-(phenylsulfanylmethyl)phenyl]-5-(trifluoromethyl)-1,2,4-oxadiazole], the melting point was 50 to 55 °C. For the same molecule, in data set [1], the inhibition at 20 ppm is at least 80%. In addition, in the data set on Phakopsora pachyrhizi, the pest or weed control at 200 ppm was at least 80%.
Take `Fc1cc(CSc2ccccc2)ccc1-c1noc(C(F)(F)F)n1` [Compound 1.25, 3-[2-fluoro-4-(phenylsulfanylmethyl)phenyl]-5-(trifluoromethyl)-1,2,4-oxadiazole]: the melting point lay within 48 to 54 °C. Besides, the inhibition at 20 ppm in data set [1] was at least 80%. Also, the pest or weed control at 200 ppm in the data set with Phakopsora pachyrhizi is at least 80%.
Take `[O-][S+](Cc1c(F)cccc1F)c1ccc(-c2noc(C(F)(F)F)n2)cc1` (centres unmarked) [Compound 2.9, 3-[4-[(2,6-difluorophenyl)methyl-sulfinyl]phenyl]-5-(trifluoromethyl)-1,2,4-oxadiazole]: the melting point was 126 to 130 °C. Further, the inhibition at 20 ppm in data set [1] was at least 80%. In addition, in the data set on Phakopsora pachyrhizi, the pest or weed control at 200 ppm was at least 80%.
The molecule `[O-][S+](Cc1ccc(-c2noc(C(F)(F)F)n2)cc1)c1ccccc1F` (centres unmarked) [Compound 2.17, 3-[4-[(2-fluorophenyl)sulfinylmethyl]phenyl]-5-(trifluoromethyl)-1,2,4-oxadiazole] displayed a melting point of 108 to 118 °C. The inhibition at 20 ppm in data set [1] is at least 80%. Besides, the pest or weed control at 200 ppm with Phakopsora pachyrhizi is at least 80%.
`[O-][S+](Cc1ccc(-c2noc(C(F)(F)F)n2)cc1F)c1ccccc1` (centres unmarked) [Compound 2.29, 3-[4-(benzenesulfinylmethyl)-3-fluoro-phenyl]-5-(trifluoromethyl)-1,2,4-oxadiazole] gave a melting point of 116 to 120 °C. The inhibition at 20 ppm in data set [1] was at least 80%. Moreover, the pest or weed control at 200 ppm in the data set on Phakopsora pachyrhizi was at least 80%.
`O=S(=O)(c1ccc(-c2noc(C(F)(F)F)n2)cc1)C1CCCCC1` [Compound 3.3, 3-(4-cyclohexylsulfonylphenyl)-5-(trifluoromethyl)-1,2,4-oxadiazole]: the melting point is 110 to 116 °C. In data set [1], the inhibition at 20 ppm was at least 80%. In the data set with Phakopsora pachyrhizi, the pest or weed control at 200 ppm was at least 80%.
Consider `O=S(=O)(c1ccc(-c2noc(C(F)(F)F)n2)cc1)c1ccccc1F` [Compound 3.12, 3-[4-(2-fluorophenyl)sulfonylphenyl]-5-(trifluoromethyl)-1,2,4-oxadiazole], for which the melting point was in the range of 140 to 147 °C. The inhibition at 20 ppm in data set [1] was at least 80%. Besides, the pest or weed control at 200 ppm in the data set with Phakopsora pachyrhizi was at least 80%.
As for `O=S(=O)(c1ccc(-c2noc(C(F)(F)F)n2)cc1)c1ccccc1Cl` [Compound 3.20, 3-[4-(2-chlorophenyl)sulfonylphenyl]-5-(trifluoromethyl)-1,2,4-oxadiazole], in data set [1], the inhibition at 20 ppm is at least 80%. Moreover, the pest or weed control at 200 ppm in the data set on Phakopsora pachyrhizi is at least 80%.
`O=S(=O)(Cc1ccc(-c2noc(C(F)(F)F)n2)cn1)c1ccccc1` [Compound 3.21, 3-[6-(benzenesulfonylmethyl)-3-pyridyl]-5-(trifluoromethyl)-1,2,4-oxadiazole] registered a melting point of 160 to 166 °C. For the same molecule, in data set [1], the inhibition at 20 ppm was at least 80%. Also, the pest or weed control at 200 ppm in the data set on Phakopsora pachyrhizi is at least 80%.

Values taken from US20180319753A1, “MICROBIOCIDAL OXADIAZOLE DERIVATIVES” (SYNGENTA PARTICIPATIONS AG, priority 2015, published 2018).
